US20250213478A1, “CATIONIC LIPID HAVING DISULFIDE BOND, LIPID MEMBRANE STRUCTURE INCLUDING SAME, NUCLEIC ACID INTRODUCTION AGENT AND PHARMACEUTICAL COMPOSITION CONTAINING ANY ONE OF SAME, METHOD FOR INTRODUCING NUCLEIC ACID INTO CELL OR TARGET CELL, AND METHOD FOR PRODUCING CELLULAR PHARMACEUTICAL” (NOF Corporation, priority 2022, published 2025)

Legend:
[1] = Particle size, PdI and zeta potential of mRNA-encapsulating LNPs (dynamic light scattering); type: physicochemical; conditions: mRNA-encapsulating LNP, cationic lipid:DOPC:Chol=55:5:40 + about 1 mol DMG-PEG2k; for PdI / particle size: dynamic light scattering; for zeta potential: physiological pH
Procedure, shortened: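 LNPs were made from cationic lipid:DOPC:Chol at 55:5:40 molar ratio plus about 1 mol DMG-PEG2k, microfluidically mixed with mRNA in malate buffer (20 mM, pH 3.0, 30 mM NaCl). They were ultrafiltered into PBS at 2 mM lipid. Size, PdI and zeta potential were measured by dynamic light scattering.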

[2] = Measurement of Liposomal pKa of LNP (TNS fluorescence); type: physicochemical; conditions: LNP without nucleic acid, cationic lipid:DOPC:Chol=52.5:7.5:40 + about 1.5 mol DMG-PEG2k; pH at which relative TNS fluorescence intensity was 50%
Procedure, shortened: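 Nucleic-acid-free LNPs (cationic lipid:DOPC:Chol 52.5:7.5:40, ~1.5 mol DMG-PEG2k) prepared by microfluidic mixing, diluted to 0.5 mM lipid, mixed with TNS in 150 mM NaCl buffers spanning pH 3.0–10.0. Fluorescence at ex 321/em 447 nm normalised 0–100% per LNP; pKa is the pH at 50%.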

BALB/c mouse = experiment: Evaluation of in vivo gene expression (luciferase mRNA-encapsulating LNP, IVIS of isolated organs); conditions: for relative value based on Comparative Example (amount of luminescence in spleen): relative to O-Ph-P4C2 LNP = 1.00; for amount of luminescence in each organ: heart / amount of luminescence in each organ: kidney / amount of luminescence in each organ: liver / amount of luminescence in each organ: lung / amount of luminescence in each organ: spleen: 4.5 hr + 15 min after administration; for amount of luminescence in each organ: spleen: spleen (Table 7)
Procedure, shortened: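 Luciferase mRNA in LNP (cationic lipid:DOPC:Chol:DMG-PEG2k = 55:5:40:1 molar) given by tail vein to male 5-week-old BALB/c mice at 0.05 mg mRNA/kg. At 4.5 hr, D-luciferin (3 mg/mouse) was given intraperitoneally; 15 min later liver, spleen, kidney, heart and lung were excised and luminescence (photons/sec) quantified by IVIS imaging.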

HeLa cells = experiment: Evaluation of in vitro gene expression in HeLa cell (luciferase mRNA-encapsulating LNP); type: cell-based, human; conditions: for cumulative luciferase luminescence intensity over 24 hr: luciferase mRNA 0.4 μg per dish, LNP cationic lipid:DOPC:Chol:DMG-PEG2k=55:5:40:1; for gene expression activity compared to Comparative Example: result in words
Procedure, shortened: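 LNP (cationic lipid:DOPC:Chol:DMG-PEG2k=55:5:40:1) carrying luciferase mRNA, 0.4 μg mRNA per 3.5 cm dish, added to HeLa cells in D-MEM with 0.1 mM D-luciferin. Luminescence read 2 min every hour in an incubator luminometer; value is cumulative luminescence over 24 hr.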

| SMILES | PdI [1] | particle size [1] [nm] | zeta potential [1] [mV] | pKa [2] | relative value based on Comparative Example (amount of luminescence in spleen) (BALB/c mouse; spleen) | gene expression activity in the spleen compared to Comparative Example (BALB/c mouse; spleen, result in words) | amount of luminescence in each organ: heart (BALB/c mouse; tail vein, mRNA 0.05 mg/kg) [photons/sec] | amount of luminescence in each organ: kidney (BALB/c mouse; tail vein, mRNA 0.05 mg/kg) [photons/sec] | amount of luminescence in each organ: liver (BALB/c mouse; tail vein, mRNA 0.05 mg/kg) [photons/sec] | amount of luminescence in each organ: lung (BALB/c mouse; tail vein, mRNA 0.05 mg/kg) [photons/sec] | amount of luminescence in each organ: spleen (BALB/c mouse; tail vein, mRNA 0.05 mg/kg) [photons/sec] | cumulative luciferase luminescence intensity over 24 hr (HeLa cells) [RLU] | gene expression activity compared to Comparative Example (HeLa cells) | amount of luminescence in spleen (BALB/c mouse; tail vein, mRNA 0.05 mg/kg, spleen (Table 8)) [photons/sec] |
| --- | --- | --- | --- | --- | --- | --- | --- | --- | --- | --- | --- | --- | --- | --- |
| CCCCCCCCCCCCCCCCC(CCCCCCCCCCCCCCCC)C(=O)Oc1ccc(CC(=O)OCCSSCCOC(=O)C(C)CN(C)C)cc1 (stereo not drawn) [Example 13] | 0.086 | 94 | −10.2 | 6.3 | 0.19 | – | 1.00E+06 | 8.00E+05 | 5.00E+07 | 8.67E+05 | 2.00E+06 | 1.44E+05 | – | – |
| CCCCCCCCCCCCCCC(CCCCCCCCCCCCCC)C(=O)Oc1ccc(CC(=O)OCCSSCCOC(=O)CCCN(C)C)cc1 [Example 7] | 0.077 | 92 | 6.8 | 7.8 | 0.37 | – | 6.86E+05 | 6.35E+05 | 1.23E+06 | 8.28E+05 | 4.03E+06 | 2.13E+08 | superior gene expression activity | – |
| CCCCCCCCCCCCCCCCC(CCCCCCCCCCCCCCCC)C(=O)Oc1ccc(CC(=O)OCCSSCCOC(=O)NCCN(C(C)C)C(C)C)cc1 [Example 28] | 0.070 | 66 | −1.4 | 6.7 | 0.16 | – | 6.88E+05 | 6.48E+05 | 9.90E+07 | 9.12E+05 | 1.68E+06 | 4.57E+07 | superior gene expression activity | – |
| CCCCCCCC/C=C\CCCCCCCC(=O)Oc1ccc(CC(=O)OCCC2CCN(CCSSCCN3CCC(CCOC(=O)Cc4ccc(OC(=O)CCCCCCC/C=C\CCCCCCCC)cc4)CC3)CC2)cc1 [Comparative Example, O-Ph-P4C2, reference compound] | 0.064 | 73 | −1.5 | 6.3 | 1.00 | – | – | – | – | – | – | 1.11E+07 | – | 1.08E+07 |
| CCCCCCCCCCCCCCCCC(CCCCCCCCCCCCCCCC)C(=O)Oc1ccc(CC(=O)OCCSSCCOC(=O)NCCCN(C)C)cc1 [Example 23] | 0.160 | 94 | 13.8 | 8.3 | 0.04 | – | – | 1.53E+05 | 2.36E+05 | 5.02E+05 | 4.45E+05 | 2.05E+07 | superior gene expression activity | – |

More lines, main results first:

| PdI [1] | particle size [1] [nm] | zeta potential [1] [mV] | pKa [2] | SMILES | relative value based on Comparative Example (amount of luminescence in spleen) (BALB/c mouse; spleen) | gene expression activity in the spleen compared to Comparative Example (BALB/c mouse; spleen, result in words) | amount of luminescence in each organ: heart (BALB/c mouse; tail vein, mRNA 0.05 mg/kg) [photons/sec] | amount of luminescence in each organ: kidney (BALB/c mouse; tail vein, mRNA 0.05 mg/kg) [photons/sec] | amount of luminescence in each organ: liver (BALB/c mouse; tail vein, mRNA 0.05 mg/kg) [photons/sec] | amount of luminescence in each organ: lung (BALB/c mouse; tail vein, mRNA 0.05 mg/kg) [photons/sec] | amount of luminescence in each organ: spleen (BALB/c mouse; tail vein, mRNA 0.05 mg/kg) [photons/sec] | cumulative luciferase luminescence intensity over 24 hr (HeLa cells) [RLU] | gene expression activity compared to Comparative Example (HeLa cells) | amount of luminescence in spleen (BALB/c mouse; tail vein, mRNA 0.05 mg/kg, spleen (Table 8)) [photons/sec] |
| --- | --- | --- | --- | --- | --- | --- | --- | --- | --- | --- | --- | --- | --- | --- |
| 0.072 | 59 | 4.1 | 7.6 | CCCCCCCCCCCCCC(=O)OCC(C)(COC(=O)CCCCCCCCCCCCC)C(=O)Oc1ccc(CC(=O)OCCSSCCOC(=O)NCCN(CC)CC)cc1 [Example 31] | 1.74 | superior gene expression activity | 7.26E+05 | 5.53E+05 | 2.62E+07 | 9.16E+05 | 1.88E+07 | 1.58E+08 | superior gene expression activity | – |
| 0.118 | 116 | 6.4 | 7.9 | CCCCCCCCCCCCCCCCC(CCCCCCCCCCCCCCCC)C(=O)Oc1ccc(CC(=O)OCCSSCCOC(=O)NCCN(C)C)cc1 [Example 21] | 0.05 | – | 3.41E+05 | 5.83E+05 | 3.68E+05 | 6.51E+05 | 5.86E+05 | 1.22E+08 | superior gene expression activity | – |
| 0.090 | 92 | −2.5 | 7.3 | CCCCCCCC/C=C\CCCCCCCC(=O)OCC(C)(COC(=O)CCCCCCC/C=C\CCCCCCCC)C(=O)Oc1ccc(CC(=O)OCCSSCCOC(=O)NCCN(C)CCO)cc1 [Example 36] | 0.19 | – | 9.67E+05 | 6.33E+05 | 2.33E+06 | 8.67E+05 | 2.00E+06 | 7.66E+07 | superior gene expression activity | – |
| 0.090 | 96 | 4.7 | 7.5 | CCCCCCCCCCCCCCCCC(CCCCCCCCCCCCCCCC)C(=O)Oc1ccc(CC(=O)OCCSSCCOC(=O)NCCN(CC)CC)cc1 [Example 22] | 0.29 | – | 3.91E+05 | 4.45E+05 | 8.31E+06 | 5.20E+05 | 3.16E+06 | 2.38E+08 | superior gene expression activity | – |
